This passage reports inhibition results from article PMC4311625, “Structural determinants for binding to angiotensin converting enzyme 2 (ACE2) and angiotensin receptors 1 and 2” (Frontiers in Pharmacology, 2015).

Peptide text beside a SMILES is read from it.

Sequence of ACE2 (Q9BYF1 18-805, species assumed): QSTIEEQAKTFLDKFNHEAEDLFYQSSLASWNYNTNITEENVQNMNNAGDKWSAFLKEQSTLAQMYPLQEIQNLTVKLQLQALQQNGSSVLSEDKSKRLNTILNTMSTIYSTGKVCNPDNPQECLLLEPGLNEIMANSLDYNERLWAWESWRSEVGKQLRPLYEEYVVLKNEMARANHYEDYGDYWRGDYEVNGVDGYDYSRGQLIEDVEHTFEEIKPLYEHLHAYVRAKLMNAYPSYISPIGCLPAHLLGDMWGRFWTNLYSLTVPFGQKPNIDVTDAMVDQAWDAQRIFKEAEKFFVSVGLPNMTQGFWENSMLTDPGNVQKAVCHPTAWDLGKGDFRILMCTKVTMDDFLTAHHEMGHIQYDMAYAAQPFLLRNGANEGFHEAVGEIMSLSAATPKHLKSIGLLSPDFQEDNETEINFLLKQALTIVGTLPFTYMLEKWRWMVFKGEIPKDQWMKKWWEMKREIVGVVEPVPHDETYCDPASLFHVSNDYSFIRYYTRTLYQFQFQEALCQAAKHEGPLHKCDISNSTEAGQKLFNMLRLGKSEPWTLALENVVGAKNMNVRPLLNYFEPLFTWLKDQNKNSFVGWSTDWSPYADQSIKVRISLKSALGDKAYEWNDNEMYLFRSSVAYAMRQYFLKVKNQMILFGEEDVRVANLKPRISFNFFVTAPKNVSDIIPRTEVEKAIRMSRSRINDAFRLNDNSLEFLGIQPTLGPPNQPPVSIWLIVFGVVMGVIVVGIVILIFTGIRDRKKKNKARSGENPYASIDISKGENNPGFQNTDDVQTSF

The target of one test is ACE2 (Homo sapiens, UniProt Q9BYF1). Nature of the test: ACE2 quenched fluorescence substrate (QFS) inhibition assay. The conditions noted are these: pH 6.5, read-out: ACE2 inhibition of terminally modified IHPF analogs, 100 μM (Table 3). The class given is biochemical. The method, then:
Angiotensin converting enzyme 2 QFS assays were performed for 1 h in 50 uM QFS, 1 M NaCl, 100 mM Tris-Cl, pH 6.5 at 37∘C on a BMG LabTechnologies (Offenburg, Germany), FLUOStar Optima in a 96 well-plate. Subsequent data analysis determined the inhibition of native AngII, its analogs and C-terminal peptides compared to the ACE2 QFS substrate [MCA-APK(DNP)-OH, [Vickers et al., 2002]]. […] Three controls were included in each ACE2 QFS assay; AngII (100 and 10 μM), IHPF (100 μM) and a known ACE2 inhibitor (1 nM; Millennium Pharmaceuticals, Cambridge, MA, USA). QFS assay results were accepted when ACE2 inhibition by AngII (10 μM) was 80 ± 5%, IHPF was 65 ± –5% and the ([Qian et al., 1999]) ‘Millennium Inhibitor’ was 70 ± –5%. Acceptable coefficients of variation (CV; standard deviation/mean × 100) for sample triplicates were <7%.
A library of 40 tetrapeptides based on the four C-terminal residues of Ang II (Ile-His-Pro-Phe/IHPF) was generated and screened for ACE2 binding at 100 μM in order to identify key residues of the C-terminus of Ang II involved in binding to the ACE2 active site. […] Several substitutions (Val, Tyr, Ala, Gly, Phe, Trp, Pro, His, Ile, and Leu) were made in order to further probe the highly hydrophobic and cyclic specificity of the C-terminus of Ang II. A β-napthalene amino acid (Nth) derivative was used as a highly hydrophobic non-natural cyclic residue substitute, and Arg and Lys were substituted for histidine at the second position from the N-terminus of the tetrapeptide to determine if positive charge or other structural or positional requirements were important.
A word on the inhibition: it is the change of the read-out against control, counted positive when it falls. On to `CC[C@H](C)[C@H](N)C(=O)N[C@@H](Cc1ccc(O)cc1)C(=O)N1CCC[C@H]1C(=O)N[C@@H](Cc1ccccc1)C(N)=O` [C-amidated IYPF] (H-IYPF-NH2), for which the inhibition at 100 µM is 8%.

Take `NC(=O)[C@H](Cc1ccccc1)NC(=O)[C@@H]1CCCN1C(=O)[C@H](Cc1ccc(O)cc1)NC(=O)[C@@H]1CCCN1` [C-amidated PYPF] (H-PYPF-NH2): the inhibition at 100 µM was 33%.

On to `CC(C)[C@H](N)C(=O)N[C@@H](Cc1ccc(O)cc1)C(=O)N1CCC[C@H]1C(=O)N[C@@H](Cc1ccccc1)C(N)=O` [C-amidated VYPF] (H-VYPF-NH2), for which the inhibition at 100 µM came to 25%.

Staying with this test, now noted: peptide 100 μM; 50 uM QFS MCA-APK(DNP)-OH, 1 M NaCl, 100 mM Tris-Cl pH 6.5, 37 °C, 1 h, fluorescence; triplicate; read-out: ACE2 inhibition of single substitution analogs of the C-terminal of AngII (Table 1).
In the case of `C[C@H](N)C(=O)N[C@@H](Cc1c[nH]cn1)C(=O)N1CCC[C@H]1C(=O)N[C@@H](Cc1ccccc1)C(=O)O` [AHPF] (H-AHPF-OH), the inhibition at 100 µM turned out to be 59%.

Consider `N[C@@H](Cc1ccccc1)C(=O)N[C@@H](Cc1c[nH]cn1)C(=O)N1CCC[C@H]1C(=O)N[C@@H](Cc1ccccc1)C(=O)O` [FHPF] (H-FHPF-OH), for which the inhibition at 100 µM was found to be 48%.

In the case of `NCC(=O)N[C@@H](Cc1c[nH]cn1)C(=O)N1CCC[C@H]1C(=O)N[C@@H](Cc1ccccc1)C(=O)O` [GHPF] (H-GHPF-OH), the inhibition at 100 µM came to 0%.

As to `N[C@@H](Cc1c[nH]cn1)C(=O)N[C@@H](Cc1c[nH]cn1)C(=O)N1CCC[C@H]1C(=O)N[C@@H](Cc1ccccc1)C(=O)O` [HHPF] (H-HHPF-OH), the inhibition at 100 µM was 12%.

As to `CC[C@H](C)[C@H](N)C(=O)N[C@@H](C)C(=O)N1CCC[C@H]1C(=O)N[C@@H](Cc1ccccc1)C(=O)O` [IAPF] (H-IAPF-OH), the inhibition at 100 µM was 37%.

Turning to `CC[C@H](C)[C@H](N)C(=O)N[C@@H](Cc1ccccc1)C(=O)N1CCC[C@H]1C(=O)N[C@@H](Cc1ccccc1)C(=O)O` [IFPF] (H-IFPF-OH), the inhibition at 100 µM is 0%.

Turning to `CC[C@H](C)[C@H](N)C(=O)NCC(=O)N1CCC[C@H]1C(=O)N[C@@H](Cc1ccccc1)C(=O)O` [IGPF] (H-IGPF-OH), the inhibition at 100 µM amounted to 39%.

Regarding `CC[C@H](C)[C@H](N)C(=O)N[C@@H](Cc1c[nH]cn1)C(=O)N[C@@H](C)C(=O)N[C@@H](Cc1ccccc1)C(=O)O` [IHAF] (H-IHAF-OH), the inhibition at 100 µM is 19%.

For `CC[C@H](C)[C@H](N)C(=O)N[C@@H](Cc1c[nH]cn1)C(=O)N[C@@H](Cc1ccccc1)C(=O)N[C@@H](Cc1ccccc1)C(=O)O` [IHFF] (H-IHFF-OH), the inhibition at 100 µM worked out at 0%.

Regarding `CC[C@H](C)[C@H](N)C(=O)N[C@@H](Cc1c[nH]cn1)C(=O)NCC(=O)N[C@@H](Cc1ccccc1)C(=O)O` [IHGF] (H-IHGF-OH), the inhibition at 100 µM was determined as 0%.

As to `CC[C@H](C)[C@H](N)C(=O)N[C@@H](Cc1c[nH]cn1)C(=O)N[C@@H](Cc1c[nH]cn1)C(=O)N[C@@H](Cc1ccccc1)C(=O)O` [IHHF] (H-IHHF-OH), the inhibition at 100 µM was 14%.

Take `CC[C@H](C)[C@H](N)C(=O)N[C@@H](Cc1c[nH]cn1)C(=O)N[C@H](C(=O)N[C@@H](Cc1ccccc1)C(=O)O)[C@@H](C)CC` [IHIF] (H-IHIF-OH): the inhibition at 100 µM was 44%.

Regarding `CC[C@H](C)[C@H](N)C(=O)N[C@@H](Cc1c[nH]cn1)C(=O)N[C@@H](CC(C)C)C(=O)N[C@@H](Cc1ccccc1)C(=O)O` [IHLF] (H-IHLF-OH), the inhibition at 100 µM was determined as 0%.

With `CC[C@H](C)[C@H](N)C(=O)N[C@@H](Cc1c[nH]cn1)C(=O)N1CCC[C@H]1C(=O)N[C@@H](C)C(=O)O` [IHPA] (H-IHPA-OH), the inhibition at 100 µM amounted to 44%.

For the compound `CC[C@H](C)[C@H](N)C(=O)N[C@@H](Cc1c[nH]cn1)C(=O)N1CCC[C@H]1C(=O)N[C@@H](Cc1ccccc1)C(=O)O` [IHPF, Ile-His-Pro-Phe, reference compound] (H-IHPF-OH), the inhibition at 100 µM was 62%.

In the case of `CC[C@H](C)[C@H](N)C(=O)N[C@@H](Cc1c[nH]cn1)C(=O)N1CCC[C@H]1C(=O)NCC(=O)O` [IHPG] (H-IHPG-OH), the inhibition at 100 µM was determined as 41%.

Take `CC[C@H](C)[C@H](N)C(=O)N[C@@H](Cc1c[nH]cn1)C(=O)N1CCC[C@H]1C(=O)N[C@@H](Cc1c[nH]cn1)C(=O)O` [IHPH] (H-IHPH-OH): the inhibition at 100 µM is 54%.

Turning to `CC[C@H](C)[C@H](N)C(=O)N[C@@H](Cc1c[nH]cn1)C(=O)N1CCC[C@H]1C(=O)N[C@H](C(=O)O)[C@@H](C)CC` [IHPI] (H-IHPI-OH), the inhibition at 100 µM turned out to be 36%.

In the case of `CC[C@H](C)[C@H](N)C(=O)N[C@@H](Cc1c[nH]cn1)C(=O)N1CCC[C@H]1C(=O)N[C@@H](CC(C)C)C(=O)O` [IHPL] (H-IHPL-OH), the inhibition at 100 µM was found to be 48%.

For the compound `CC[C@H](C)[C@H](N)C(=O)N[C@@H](Cc1c[nH]cn1)C(=O)N1CCC[C@H]1C(=O)N[C@H](C(=O)O)C(C)C` [IHPV] (H-IHPV-OH), the inhibition at 100 µM was determined as 18%.

As to `CC[C@H](C)[C@H](N)C(=O)N[C@@H](Cc1c[nH]cn1)C(=O)N1CCC[C@H]1C(=O)N[C@@H](Cc1c[nH]c2ccccc12)C(=O)O` [IHPW] (H-IHPW-OH), the inhibition at 100 µM was 57%.

Turning to `CC[C@H](C)[C@H](N)C(=O)N[C@@H](Cc1c[nH]cn1)C(=O)N1CCC[C@H]1C(=O)N[C@@H](Cc1ccc(O)cc1)C(=O)O` [IHPY] (H-IHPY-OH), the inhibition at 100 µM was 50%.

With `CC[C@H](C)[C@H](N)C(=O)N[C@@H](Cc1c[nH]cn1)C(=O)N[C@H](C(=O)N[C@@H](Cc1ccccc1)C(=O)O)C(C)C` [IHVF] (H-IHVF-OH), the inhibition at 100 µM came out at 77%.

On to `CC[C@H](C)[C@H](N)C(=O)N[C@@H](Cc1c[nH]cn1)C(=O)N[C@@H](Cc1c[nH]c2ccccc12)C(=O)N[C@@H](Cc1ccccc1)C(=O)O` [IHWF] (H-IHWF-OH), for which the inhibition at 100 µM worked out at 0%.

On to `CC[C@H](C)[C@H](N)C(=O)N[C@@H](Cc1c[nH]cn1)C(=O)N[C@@H](Cc1ccc(O)cc1)C(=O)N[C@@H](Cc1ccccc1)C(=O)O` [IHYF] (H-IHYF-OH), for which the inhibition at 100 µM stood at 1%.

Consider `CC[C@H](C)[C@H](N)C(=O)N[C@H](C(=O)N1CCC[C@H]1C(=O)N[C@@H](Cc1ccccc1)C(=O)O)[C@@H](C)CC` [IIPF] (H-IIPF-OH), for which the inhibition at 100 µM came to 32%.

Turning to `CC[C@H](C)[C@H](N)C(=O)N[C@@H](CCCCN)C(=O)N1CCC[C@H]1C(=O)N[C@@H](Cc1ccccc1)C(=O)O` [IKPF] (H-IKPF-OH), the inhibition at 100 µM was 28%.

With `CC[C@H](C)[C@H](N)C(=O)N1CCC[C@H]1C(=O)N1CCC[C@H]1C(=O)N[C@@H](Cc1ccccc1)C(=O)O` [IPPF] (H-IPPF-OH), the inhibition at 100 µM is 0%.

`CC[C@H](C)[C@H](N)C(=O)N[C@@H](CCCNC(=N)N)C(=O)N1CCC[C@H]1C(=O)N[C@@H](Cc1ccccc1)C(=O)O` [IRPF] (H-IRPF-OH): the inhibition at 100 µM is 33%.

With `CC[C@H](C)[C@H](N)C(=O)N[C@H](C(=O)N1CCC[C@H]1C(=O)N[C@@H](Cc1ccccc1)C(=O)O)C(C)C` [IVPF] (H-IVPF-OH), the inhibition at 100 µM worked out at 28%.

For the compound `CC[C@H](C)[C@H](N)C(=O)N[C@@H](Cc1c[nH]c2ccccc12)C(=O)N1CCC[C@H]1C(=O)N[C@@H](Cc1ccccc1)C(=O)O` [IWPF] (H-IWPF-OH), the inhibition at 100 µM was 40%.

Staying with this test, now noted: peptide 100 μM; 50 uM QFS, 1 M NaCl, 100 mM Tris-Cl pH 6.5, 37 °C, 1 h; triplicate; read-out: Inhibition (%) of ACE2, single and multiple residue substitution analogs (Table 2).
On to `CC[C@H](C)[C@H](N)C(=O)N[C@@H](Cc1c[nH]cn1)C(=O)N[C@H](C(=O)N[C@@H](Cc1ccccc1)C(=O)O)C(C)C` [IHVF] (H-IHVF-OH), for which the inhibition at 100 µM is 77%.

The test is the same for the next values; noted with them: read-out: ACE2 inhibition of terminally modified IHPF analogs, 10 μM (Table 3, in brackets); peptide 10 μM; 50 uM QFS, 1 M NaCl, 100 mM Tris-Cl pH 6.5, 37 °C, 1 h.
Regarding `CC(C)[C@H](N)C(=O)N[C@@H](Cc1c[nH]cn1)C(=O)N[C@H](C(=O)N[C@@H](Cc1ccccc1)C(N)=O)C(C)C` [C-amidated VHVF] (H-VHVF-NH2), the inhibition at 10 µM came out at 40%.

Consider `CC[C@H](C)[C@H](N)C(=O)N[C@@H](Cc1c[nH]cn1)C(=O)N1CCC[C@H]1C(=O)N[C@@H](Cc1ccccc1)C(=O)O` [IHPF, Ile-His-Pro-Phe, reference compound] (H-IHPF-OH), for which the inhibition at 10 µM came to 22%.

The same test, now with this note: read-out: ACE2 inhibition of terminally modified IHPF analogs, 100 μM (Table 3); peptide 100 μM; 50 uM QFS, 1 M NaCl, 100 mM Tris-Cl pH 6.5, 37 °C, 1 h.
As to `CC[C@H](C)[C@H](N)C(=O)N[C@@H](Cc1c[nH]cn1)C(=O)N1CCC[C@H]1C(=O)N[C@@H](Cc1ccccc1)C(N)=O` [C-amidated IHPF] (H-IHPF-NH2), the inhibition at 100 µM was found to be 18%.

On to `NC(=O)[C@H](Cc1ccccc1)NC(=O)[C@@H]1CCCN1C(=O)[C@H](Cc1c[nH]cn1)NC(=O)[C@@H]1CCCN1` [C-amidated PHPF] (H-PHPF-NH2), for which the inhibition at 100 µM came out at 1%.

With `CC(C)[C@H](NC(=O)[C@H](Cc1c[nH]cn1)NC(=O)[C@@H]1CCCN1)C(=O)N[C@@H](Cc1ccccc1)C(N)=O` [C-amidated PHVF] (H-PHVF-NH2), the inhibition at 100 µM was determined as 12%.

For the compound `CC(C)[C@H](NC(=O)[C@H](Cc1ccc(O)cc1)NC(=O)[C@@H]1CCCN1)C(=O)N[C@@H](Cc1ccccc1)C(N)=O` [C-amidated PYVF] (H-PYVF-NH2), the inhibition at 100 µM was found to be 26%.

As for `CC(C)[C@H](N)C(=O)N[C@@H](Cc1c[nH]cn1)C(=O)N[C@H](C(=O)N[C@@H](Cc1ccccc1)C(N)=O)C(C)C` [C-amidated VHVF] (H-VHVF-NH2), the inhibition at 100 µM stood at 86%.

For `CC[C@H](C)[C@H](N)C(=O)N[C@@H](Cc1c[nH]cn1)C(=O)N1CCC[C@H]1C(=O)N[C@@H](Cc1ccccc1)C(=O)O` [IHPF, Ile-His-Pro-Phe, reference compound] (H-IHPF-OH), the inhibition at 100 µM was found to be 66%.
